Patent publication US11980188B2, “Spiro cyclohexanedione derivates as herbicides” (SYNGENTA PARTICIPATIONS AG, priority 2018, dated 2024)

Columns and labels:
Test in all cases: Glasshouse herbicide test, pre- and post-emergence, percentage damage
Format in all cases: in vivo
[1] = tested on: Echinochloa crus-galli (ECHCG); settings: 250 g/h, evaluated after 13 days, percentage damage on five point scale; for ECHCG POST: post-emergence; for ECHCG PRE: pre-emergence
Description: (§1) Seeds of a variety of test species are sown in standard soil in pots (Lolium perenne (LOLPE), Setaria faberi (SETFA), Alopecurus myosuroides (ALOMY), Echinochloa crus-galli (ECHCG), Avena fatua (AVEFA)). After cultivation for one day (pre-emergence) or after 8 days cultivation (post-emergence) under controlled conditions in a glasshouse (at 24/16° C., day/night; 14 hours light; 65% humidity), the plants are sprayed with an aqueous spray solution derived from the formulation of the technical active ingredient in acetone/water (50:50) solution containing 0.5% Tween 20 (polyoxyethelyene sorbitan monolaurate, CAS RN 9005-64-5). Compounds are applied at […]. The test plants are then grown in a glasshouse under controlled conditions in a glasshouse (at 24/16° C., day/night; 14 hours light; 65% humidity) and watered twice daily. After 13 days for pre and post-emergence, the test is evaluated for the percentage damage caused to the plant. The biological activities are shown in the following table on a five point scale (5=80-100%; 4=60-79%; 3=40-59%; 2=20-39%; 1=0-19%).

[2] = tested on: Lolium perenne (LOLPE); settings: 250 g/h, evaluated after 13 days, percentage damage on five point scale; for LOLPE POST: post-emergence; for LOLPE PRE: pre-emergence
Description: as §1

[3] = tested on: Alopecurus myosuroides (ALOMY); settings: 250 g/h, evaluated after 13 days, percentage damage on five point scale; for ALOMY POST: post-emergence; for ALOMY PRE: pre-emergence
Description: as §1

[4] = tested on: Avena fatua (AVEFA); settings: 250 g/h, evaluated after 13 days, percentage damage on five point scale; for AVEFA POST: post-emergence; for AVEFA PRE: pre-emergence
Description: as §1

[5] = tested on: Setaria faberi (SETFA); settings: 250 g/h, evaluated after 13 days, percentage damage on five point scale; for SETFA POST: post-emergence; for SETFA PRE: pre-emergence
Description: as §1

CCS(=O)(=O)N1CCC2(CC1)CC(=O)C(c1c(C)cc(-c3ncc(F)cn3)cc1C)C(=O)C2 [Compound A32]
5 (5=80-100%): ECHCG POST [1] | ECHCG PRE [1] | LOLPE POST [2] | LOLPE PRE [2] | ALOMY POST [3] | ALOMY PRE [3] | AVEFA POST [4] | AVEFA PRE [4] | SETFA POST [5] | SETFA PRE [5]

Cc1cc(-c2ncc(F)cn2)cc(C)c1C1C(=O)CC2(CCN(C(=O)c3ccccc3)CC2)CC1=O [Compound A33]
5 (5=80-100%): ECHCG POST [1] | ECHCG PRE [1] | LOLPE POST [2] | LOLPE PRE [2] | ALOMY POST [3] | ALOMY PRE [3] | AVEFA POST [4] | AVEFA PRE [4] | SETFA POST [5] | SETFA PRE [5]

Cc1cc(-c2ncc(F)cn2)cc(C)c1C1C(=O)CC2(CCN(C(=O)c3ccccn3)CC2)CC1=O [Compound A34]
5 (5=80-100%): ECHCG POST [1] | ECHCG PRE [1] | LOLPE POST [2] | LOLPE PRE [2] | ALOMY POST [3] | ALOMY PRE [3] | AVEFA POST [4] | AVEFA PRE [4] | SETFA POST [5] | SETFA PRE [5]

COCC(=O)N1CCC2(CC1)CC(=O)C(c1c(C)cc(-c3ncc(F)cn3)cc1C)C(=O)C2 [Compound A35]
5 (5=80-100%): ECHCG POST [1] | ECHCG PRE [1] | LOLPE POST [2] | LOLPE PRE [2] | ALOMY POST [3] | ALOMY PRE [3] | AVEFA POST [4] | AVEFA PRE [4] | SETFA POST [5] | SETFA PRE [5]

Cc1cc(-c2ncc(F)cn2)cc(C)c1C1C(=O)CC2(CCN(C(=O)NC(C)(C)C)CC2)CC1=O [Compound A36]
5 (5=80-100%): ECHCG PRE [1] | LOLPE POST [2] | LOLPE PRE [2] | ALOMY POST [3] | ALOMY PRE [3] | AVEFA POST [4] | AVEFA PRE [4] | SETFA POST [5] | SETFA PRE [5]

Cc1cc(-c2ncc(F)cn2)cc(C)c1C1C(=O)CC2(CCN(C(=O)NC(=O)C(C)(C)C)CC2)CC1=O [Compound A37]
5 (5=80-100%): ECHCG PRE [1] | LOLPE POST [2] | LOLPE PRE [2] | ALOMY POST [3] | ALOMY PRE [3] | AVEFA POST [4] | AVEFA PRE [4] | SETFA POST [5] | SETFA PRE [5]

Cc1cc(-c2ncc(F)cn2)cc(C)c1C1C(=O)CC2(CCN(C(=O)C3CC3)CC2)CC1=O [Compound A38]
5 (5=80-100%): ECHCG POST [1] | ECHCG PRE [1] | LOLPE POST [2] | LOLPE PRE [2] | ALOMY POST [3] | ALOMY PRE [3] | AVEFA POST [4] | AVEFA PRE [4] | SETFA POST [5] | SETFA PRE [5]

Cc1cc(-c2ncc(F)cn2)cc(C)c1C1C(=O)CC2(CCN(C(=O)C(F)F)CC2)CC1=O [Compound A39]
5 (5=80-100%): ECHCG POST [1] | ECHCG PRE [1] | LOLPE POST [2] | LOLPE PRE [2] | ALOMY POST [3] | ALOMY PRE [3] | AVEFA POST [4] | AVEFA PRE [4] | SETFA POST [5] | SETFA PRE [5]
